Test results published in patent US20230278984A1 (Global Blood Therapeutics, Inc., priority 2020, published 2023).

Target: T1, Human pyruvate kinase R (PKR) (Homo sapiens, UniProt P30613)
T1 construct: Human pyruvate kinase R (PKR), residues 14-574; 6x-His (N, cleaved yes); 8x-Arg (N, cleaved yes); SUMO (N, cleaved yes); host or cells: E. coli
Experiment: Biochemical assay for activation of pyruvate kinase R (Kinase-Glo luminescence measurement of ATP generation)
Details: for AC50: PKR biochemical assay, 0.1 nM PKR, 0.3 mM ADP, 2 mM FBP, 0.1 mM PEP; for Emax: maximal activation level relative to the activation level achieved by the literature compound AG-348 @ 10 μM
Procedure, shortened: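 Recombinant human PKR (residues 14-574), E. coli-expressed with His-Arg-SUMO tag removed, purified by Ni-NTA, anion exchange and size exclusion. Activation measured as ATP generation via Kinase-Glo luminescence.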

T1 sequence (P30613 14-574): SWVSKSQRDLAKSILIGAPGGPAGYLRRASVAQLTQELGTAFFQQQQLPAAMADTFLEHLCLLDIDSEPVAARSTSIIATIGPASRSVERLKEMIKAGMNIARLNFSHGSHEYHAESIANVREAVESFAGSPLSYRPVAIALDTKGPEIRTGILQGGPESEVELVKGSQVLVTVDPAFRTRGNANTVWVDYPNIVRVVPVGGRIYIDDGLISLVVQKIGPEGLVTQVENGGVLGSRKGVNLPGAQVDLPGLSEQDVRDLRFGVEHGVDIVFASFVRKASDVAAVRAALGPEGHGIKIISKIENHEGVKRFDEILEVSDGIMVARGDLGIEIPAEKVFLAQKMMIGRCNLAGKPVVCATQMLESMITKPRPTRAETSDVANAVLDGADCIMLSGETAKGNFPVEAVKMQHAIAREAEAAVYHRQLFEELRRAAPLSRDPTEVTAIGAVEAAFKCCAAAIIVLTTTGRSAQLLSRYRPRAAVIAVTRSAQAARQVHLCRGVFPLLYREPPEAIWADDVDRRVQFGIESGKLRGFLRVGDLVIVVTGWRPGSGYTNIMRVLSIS

SMILES	AC50 [nM]	Emax [%]
Cc1nc(CNC(=O)NCc2ncnn2-c2cc3ccccc3cn2)n(-c2ccc(Cl)c(F)c2)n1 [Compound 125, 1-{[1-(4-chloro-3-fluorophenyl)-3-methyl-1H-1,2,4-triazol-5-yl]methyl}-3-{[1-(isoquinolin-3-yl)-1H-1,2,4-triazol-5-yl]methyl}urea]	3800	81
Cc1nc(CNC(=O)NCc2ncnn2-c2cc(F)c3nccnc3c2)n(-c2ccc(Cl)c(F)c2)n1 [Compound 101, 1-{[1-(4-chloro-3-fluorophenyl)-3-methyl-1H-1,2,4-triazol-5-yl]methyl}-3-{[1-(8-fluoroquinoxalin-6-yl)-1H-1,2,4-triazol-5-yl]methyl}urea]	93	77
Cc1nc(CNC(=O)NCc2ncnn2-c2cnc3c(F)cccc3c2)n(-c2ccc(Cl)c(F)c2)n1 [Compound 136, 3-{[1-(4-chloro-3-fluorophenyl)-3-methyl-1H-1,2,4-triazol-5-yl]methyl}-1-{[1-(8-fluoroquinolin-3-yl)-1H-1,2,4-triazol-5-yl]methyl}urea]	47	94
Cc1nc(CNC(=O)NCc2ncnn2-c2ccc3nccnc3c2)n(-c2ccc(Cl)c(F)c2)n1 [Compound 40, 3-{[1-(4-chloro-3-fluorophenyl)-3-methyl-1H-1,2,4-triazol-5-yl]methyl}-1-{[1-(quinoxalin-6-yl)-1H-1,2,4-triazol-5-yl]methyl}urea]	150	73
Cc1nc(CNC(=O)NCc2ncnn2-c2cnc3cccnc3c2)n(-c2ccc(Cl)c(F)c2)n1 [Compound 43, 1-{[1-(4-chloro-3-fluorophenyl)-3-methyl-1H-1,2,4-triazol-5-yl]methyl}-3-{[1-(1,5-naphthyridin-3-yl)-1H-1,2,4-triazol-5-yl]methyl}urea]	100	84
Cc1nc(CNC(=O)NCc2ncnn2-c2cc(C)c3nccnc3c2)n(-c2ccc(Cl)c(F)c2)n1 [Compound 103, 1-{[1-(4-chloro-3-fluorophenyl)-3-methyl-1H-1,2,4-triazol-5-yl]methyl}-3-{[1-(8-methylquinoxalin-6-yl)-1H-1,2,4-triazol-5-yl]methyl}urea]	110	73
Cc1nc(CNC(=O)NCc2ncnn2-c2cc(F)c3cccnc3c2)n(-c2ccc(Cl)c(F)c2)n1 [Compound 47, 1-{[1-(4-chloro-3-fluorophenyl)-3-methyl-1H-1,2,4-triazol-5-yl]methyl}-3-{[1-(5-fluoroquinolin-7-yl)-1H-1,2,4-triazol-5-yl]methyl}urea]	42	85
Cc1nc(CNC(=O)NCc2ncnn2-c2cc(C)c3cncnc3c2)n(-c2ccc(Cl)c(F)c2)n1 [Compound 105, 1-{[1-(4-chloro-3-fluorophenyl)-3-methyl-1H-1,2,4-triazol-5-yl]methyl}-3-{[1-(5-methylquinazolin-7-yl)-1H-1,2,4-triazol-5-yl]methyl}urea]	880	59
CCN(Cc1ncnn1-c1ccc(Cl)c(F)c1)C(=O)NCc1nc(C)nn1-c1cnc2ccccc2c1 [Compound 143, 1-{[1-(4-chloro-3-fluorophenyl)-1H-1,2,4-triazol-5-yl]methyl}-1-ethyl-3-{[3-methyl-1-(quinolin-3-yl)-1H-1,2,4-triazol-5-yl]methyl}urea]	140	112
Cc1nc(CNC(=O)NCc2ncnn2-c2ccc3cc(F)cnc3c2)n(-c2ccc(Cl)c(F)c2)n1 [Compound 48, 1-{[1-(4-chloro-3-fluorophenyl)-3-methyl-1H-1,2,4-triazol-5-yl]methyl}-3-{[1-(3-fluoroquinolin-7-yl)-1H-1,2,4-triazol-5-yl]methyl}urea]	83	74
CCN(Cc1ncnn1-c1cnc2ccccc2c1)C(=O)NCc1nc(C)nn1-c1ccc(Cl)c(F)c1 [Compound 142, 1-{[1-(4-chloro-3-fluorophenyl)-3-methyl-1H-1,2,4-triazol-5-yl]methyl}-3-ethyl-3-{[1-(quinolin-3-yl)-1H-1,2,4-triazol-5-yl]methyl}urea]	250	127
Cc1nc(CNC(=O)NCc2ncnn2-c2ccc(C3CCC3)nc2)n(-c2ccc(Cl)c(F)c2)n1 [Compound 132, 1-{[1-(4-chloro-3-fluorophenyl)-3-methyl-1H-1,2,4-triazol-5-yl]methyl}-3-{[1-(6-cyclobutylpyridin-3-yl)-1H-1,2,4-triazol-5-yl]methyl}urea]	490	64
Cc1nc(CNC(=O)NCc2ncnn2-c2cnc3cccc(F)c3c2)n(-c2ccc(Cl)c(F)c2)n1 [Compound 140, 1-{[1-(4-chloro-3-fluorophenyl)-3-methyl-1H-1,2,4-triazol-5-yl]methyl}-3-{[1-(5-fluoroquinolin-3-yl)-1H-1,2,4-triazol-5-yl]methyl}urea]	25	72
CN(Cc1nnnn1-c1ccc(Cl)c(F)c1)C(=O)NCc1ncnn1-c1ccc(Cl)c(F)c1 [Compound 32, 1-{[1-(4-chloro-3-fluorophenyl)-1H-1,2,3,4-tetrazol-5-yl]methyl}-3-{[1-(4-chloro-3-fluorophenyl)-1H-1,2,4-triazol-5-yl]methyl}-1-methylurea]	210	74
Cc1nc(CNC(=O)NCc2ncnn2-c2ccc3scnc3c2)n(-c2ccc(Cl)c(F)c2)n1 [Compound 17, 1-{[1-(1,3-benzothiazol-5-yl)-1H-1,2,4-triazol-5-yl]methyl}-3-{[1-(4-chloro-3-fluorophenyl)-3-methyl-1H-1,2,4-triazol-5-yl]methyl}urea]	13	82
CCN(Cc1ncnn1-c1ccc(Cl)c(F)c1)C(=O)NCc1ncnn1-c1ccc(OC)nc1 [Compound 120, 3-{[1-(4-chloro-3-fluorophenyl)-1H-1,2,4-triazol-5-yl]methyl}-3-ethyl-1-{[1-(6-methoxypyridin-3-yl)-1H-1,2,4-triazol-5-yl]methyl}urea]	220	51
CCc1ccc(-n2ncnc2CNC(=O)NCc2nc(C)nn2-c2ccc(Cl)c(F)c2)cn1 [Compound 141, 1-{[1-(4-chloro-3-fluorophenyl)-3-methyl-1H-1,2,4-triazol-5-yl]methyl}-3-{[1-(6-ethylpyridin-3-yl)-1H-1,2,4-triazol-5-yl]methyl}urea]	140	71
CC1(Cn2ncnc2CNC(=O)NCc2ncnn2-c2ccc(Cl)c(F)c2)CCOCC1 [Compound 11, 3-{[1-(4-chloro-3-fluorophenyl)-1H-1,2,4-triazol-5-yl]methyl}-1-({1-[(4-methyloxan-4-yl)methyl]-1H-1,2,4-triazol-5-yl}methyl)urea]	88	49

Now from value to compound:

AC50 [nM]	Emax [%]	SMILES
6000	53	O=C1N(Cc2nnnn2-c2ccc(Cl)cc2)CCCN1Cc1nnnn1-c1ccc(Cl)cc1 [Compound 3, 1,3-bis({[1-(4-chlorophenyl)-1H-1,2,3,4-tetrazol-5-yl]methyl})-1,3-diazinan-2-one]
1700	148	O=C(NCc1nnnn1-c1ccc(C(F)(F)F)cc1)NCc1nnnn1-c1ccc(C(F)(F)F)cc1 [Compound 115, 1,3-bis({1-[4-(trifluoromethyl)phenyl]-1H-1,2,3,4-tetrazol-5-yl}methyl)urea]
89	39	O=C(NCc1ncnn1-c1ccc(Cl)nc1)NCc1ncnn1-c1ccc(Cl)nc1 [Compound 116, 1,3-bis({[1-(6-chloropyridin-3-yl)-1H-1,2,4-triazol-5-yl]methyl})urea]
1100	31	O=C(NCc1ncnn1-c1ccc(O)nc1)NCc1ncnn1-c1ccc(Cl)c(F)c1 [Compound 119, 3-{[1-(4-chloro-3-fluorophenyl)-1H-1,2,4-triazol-5-yl]methyl}-1-{[1-(6-hydroxypyridin-3-yl)-1H-1,2,4-triazol-5-yl]methyl}urea]
460	74	O=C(NCc1ncnn1-c1ccc(Cl)c(F)c1)NCc1nnnn1-c1ccc2c(c1)OC(F)(F)O2 [Compound 76, 1-{[1-(4-chloro-3-fluorophenyl)-1H-1,2,4-triazol-5-yl]methyl}-3-{[1-(2,2-difluoro-2H-1,3-benzodioxol-5-yl)-1H-1,2,3,4-tetrazol-5-yl]methyl}urea]
200	106	O=C(NCc1ncnn1-c1ccc2cccnc2c1)NCc1nnnn1-c1ccc(Cl)c(F)c1 [Compound 80, 1-{[1-(4-chloro-3-fluorophenyl)-1H-1,2,3,4-tetrazol-5-yl]methyl}-3-{[1-(quinolin-7-yl)-1H-1,2,4-triazol-5-yl]methyl}urea]
1100	106	O=C(NCc1nnnn1-c1ccc(F)c(F)c1)NCc1nnnn1-c1ccc(F)c(F)c1 [Compound 56, 1,3-bis({[1-(3,4-difluorophenyl)-1H-1,2,3,4-tetrazol-5-yl]methyl})urea]
1800	62	COc1ccc(-n2ncnc2CNC(=O)NCc2ncnn2-c2ccc(OC)cc2)cc1 [Compound 65, 1,3-bis({[1-(4-methoxyphenyl)-1H-1,2,4-triazol-5-yl]methyl})urea]
190	107	Cc1nc(CNC(=O)NCc2nc(C)nn2-c2ccc(Cl)cc2)n(-c2ccc(Cl)cc2)n1 [Compound 73, 1,3-bis({[1-(4-chlorophenyl)-3-methyl-1H-1,2,4-triazol-5-yl]methyl})urea]
14	76	O=C(NCc1ncnn1-c1ccc(Cl)c(F)c1)NCc1nnnn1-c1ccc(Cl)c(F)c1 [Compound 31, 3-{[1-(4-chloro-3-fluorophenyl)-1H-1,2,3,4-tetrazol-5-yl]methyl}-1-{[1-(4-chloro-3-fluorophenyl)-1H-1,2,4-triazol-5-yl]methyl}urea]
2600	53	COc1ccc(-n2ncnc2CNC(=O)NCc2ncnn2-c2ccc(OC)nc2)cn1 [Compound 117, 1,3-bis({[1-(6-methoxypyridin-3-yl)-1H-1,2,4-triazol-5-yl]methyl})urea]
